Where two headings read alike, the source gives them in different places. Values belong to the molecule of their own block, whether it stands above or below them.
Experiments:
[1] = tested on: 15-PGDH-luciferase fusion reporter in V9m, LS174T and V503 cells; assay: 15-PGDH-luciferase fusion gene reporter induction, stated for the three cell line backgrounds together; type: cell-based
[2] = tested on: 15-PGDH luciferase fusion construct in Vaco503 reporter cell line; assay: 15-PGDH-luciferase fusion gene reporter induction, V503 cells; type: cell-based
[3] = tested on: 15-PGDH luciferase fusion construct in V9m reporter cell line; assay: 15-PGDH-luciferase fusion gene reporter induction, V9m cells; type: cell-based
15-PGDH protein = 15-PGDH protein (Homo sapiens (Human), UniProt P15428); assay: Inhibition of enzymatic activity of recombinant 15-PGDH in vitro (tritium transfer from PGE2 or NADH fluorescence); type: biochemical; details: for IC50: recombinant 15-PGDH in vitro, read-out: Enzyme inhibition (IC50); for inhibition at […]: read-out: Enzyme inhibition % ([…]), recombinant 15-PGDH, […] compound
[4] = tested on: 15-PGDH luciferase fusion construct in LS174T reporter cell line; assay: 15-PGDH-luciferase fusion gene reporter induction, LS174T cells; type: cell-based; details: Homo sapiens
A549 cells [5] = assay: Cellular toxicity on A549 cells (CellTiter-Glo); type: cell-based; design: Decrease Cell viability in A549 cell (%): concentration or dose not given beside the values; details: A549 cells
A549 cells [6] = assay: PGE2 levels in the medium of IL1-beta stimulated A549 cells; type: cell-based; details: for Decrease PGE-2 (IL-1beta-A549, %): media of IL-1beta stimulated A549 cells;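 as to all read-outs here: PGE2 in the collected culture medium quantified by enzyme immunoassay (ELISA), with data drawn from three independent experiments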
[7] = read-out: V503-3H9-7 reporter activity, % ([…]), V503 reporter cells, […] compound, % induction of luciferase activity over basal level, read-out: V503-3H9-7 reporter activity, % (2.5 μM)
[8] = read-out: V503-3H9-7 reporter activity, % ([…]), V503 reporter cells, […] compound, % induction of luciferase activity over basal level, read-out: V503-3H9-7 reporter activity, % (7.5 μM)
[9] = read-out: V9M-SC3 Reporter activity ([…]) (%), V9m reporter cells, […] compound, % induction of luciferase activity over basal level, read-out: V9M-SC3 Reporter activity (2.5 μM) (%)
[10] = read-out: V9M-SC3 Reporter activity ([…]), %, V9m reporter cells, […] compound, % induction of luciferase activity over basal level, read-out: V9M-SC3 Reporter activity (7.5 μM), %
[11] = read-out: Ls174T-SC1 reporter activity, % ([…]), LS174T reporter cells, […] compound, % induction of luciferase activity over basal level, read-out: Ls174T-SC1 reporter activity, % (2.5 μM)
[12] = read-out: Ls174T-SC1 reporter activity, % ([…]), LS174T reporter cells, […] compound, % induction of luciferase activity over basal level, read-out: Ls174T-SC1 reporter activity, % (7.5 μM)
[13] = read-out: V503-3H9-7 reporter activity, % ([…]), […], Table 18, read-out: V503-3H9-7 reporter activity, % (2.5 μM)
[14] = read-out: V503-3H9-7 reporter activity, % ([…]), […], Table 18, read-out: V503-3H9-7 reporter activity, % (7.5 μM)
[15] = read-out: V9M-SC3 Reporter activity ([…]) (%), […], Table 18, read-out: V9M-SC3 Reporter activity (2.5 μM) (%)
[16] = Table 18, read-out: Enzyme inhibition % (7.5 μM)
[17] = read-out: Ls174T-SC1 reporter activity, % ([…]), […], Table 18, read-out: Ls174T-SC1 reporter activity, % (2.5 μM)
[18] = read-out: Ls174T-SC1 reporter activity, % ([…]), […], Table 18, read-out: Ls174T-SC1 reporter activity, % (7.5 μM)

15-PGDH protein, sequence (P15428 whole entry, the tested form may be a part): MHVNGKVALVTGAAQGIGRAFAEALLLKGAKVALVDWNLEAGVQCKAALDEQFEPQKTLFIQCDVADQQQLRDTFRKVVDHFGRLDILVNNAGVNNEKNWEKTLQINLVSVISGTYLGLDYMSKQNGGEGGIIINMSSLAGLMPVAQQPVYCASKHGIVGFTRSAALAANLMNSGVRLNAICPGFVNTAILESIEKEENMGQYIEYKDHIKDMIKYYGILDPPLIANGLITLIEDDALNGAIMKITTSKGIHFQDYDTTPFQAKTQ

SMILES: C[S+]([O-])c1sc2nc(-c3cccs3)cc(-c3ccccc3)c2c1N (stereo not shown) [SW208079, 2-(methylsulfinyl)-4-phenyl-6-(thiophen-2-yl)thieno[2,3-b]pyridin-3-amine]
- reporter induction in reporter cell lines [1]: marked loss of activity in inducing the cell line reporters
- activation at […] ([2]; read-out: V503 reporter activity ([…]), […], % increased luciferase activity over basal level, read-out: V503 reporter activity (2.5 uM)): 85.3%
- activation at […] ([2]; read-out: V503 reporter activity ([…]), […], % increased luciferase activity over basal level, read-out: V503 reporter activity (7.5 uM)): 61.8%
- activation at […] ([3]; read-out: V9M reporter activity ([…]), […], % increased luciferase activity over basal level, 100 = doubling, read-out: V9M reporter activity (2.5 uM)): 36%
- activation at […] ([3]; read-out: V9M reporter activity ([…]), […], % increased luciferase activity over basal level, 100 = doubling, read-out: V9M reporter activity (7.5 uM)): 32.8%
- IC50 higher compared to SW033291 (15-PGDH protein; effect of carbon side chain length): over 60 fold
- activation at […] ([4]; read-out: LS174T reporter activity ([…]), […], % increased luciferase activity over basal level, read-out: LS174T reporter activity (2.5 uM)): 53.4%
- activation at […] ([4]; read-out: LS174T reporter activity ([…]), […], % increased luciferase activity over basal level, read-out: LS174T reporter activity (7.5 uM)): 43.8%

SMILES: COc1ccc(S(=O)(=O)N(CC(=O)N2CCCCC2)c2cc(OC)ccc2OC)cc1 [SW207999]
- induction of 15-PGDH-luciferase reporter in cell lines (SW054384 analogues) ([1]; […] and […]): active in inducing the 15-PGDH-luciferase reporter
- activation at […] [2, 7]: 124%
- activation at […] [2, 8]: 110%
- activation at […] [3, 9]: 128%
- activation at […] [3, 10]: 124%
- activation at […] [4, 11]: 98%
- activation at […] [4, 12]: 123%

SMILES: CCCC[S@](C)(O)c1sc2nc(-c3cccs3)cc(-c3ccccc3)c2c1N [SW033291 isomer B]
- IC50 (15-PGDH protein; Table 2): 0.00076 µM

SMILES: CCCC[S+]([O-])c1ncccc1[N+](=O)[O-] (stereo not shown) [SW208069, 2-(butylsulfinyl)-3-nitropyridine]
- IC50 (15-PGDH protein; Table 2, cells printed in uM): > 7.5 µM

SMILES: COc1ccc(OC)c(N(CC(=O)Nc2cccnc2)S(=O)(=O)c2ccc(Br)cc2)c1 [SW203737]
- Decrease Cell viability in A549 cell (%) (A549 cells [5]): −2.56%
- lowering of PGE2 levels in media (A549 cells [6]): show activity in lowering PGE2
- Decrease PGE-2 (IL-1beta-A549, %) (A549 cells [6]): 47.78%
- activation at […] [2, 7]: 176%
- activation at […] [2, 8]: 154%
- activation at […] [3, 9]: 93.4%
- activation at […] [3, 10]: 103%
- activation at […] [4, 11]: 76.7%
- activation at […] [4, 12]: 85.1%

SMILES: COc1ccc(OC)c(N(CC(=O)Nc2cccnc2)S(=O)(=O)c2ccc(F)cc2)c1 [SW203736]
- Decrease Cell viability in A549 cell (%) (A549 cells [5]): −3.06%
- lowering of PGE2 levels in media (A549 cells [6]): show activity in lowering PGE2
- Decrease PGE-2 (IL-1beta-A549, %) (A549 cells [6]): 31.86%
- activation at […] [2, 7]: 244%
- activation at […] [2, 8]: 204%
- activation at […] [3, 9]: 132%
- activation at […] [3, 10]: 145%
- activation at […] [4, 11]: 127%
- activation at […] [4, 12]: 156%

SMILES: COc1ccc(S(=O)(=O)N(CC(=O)N2CCCCCC2)c2cc(OC)ccc2OC)cc1 [SW207998]
- rank of reduction in levels of PGE2 in the medium (A549 cells [6]; 100 nM drug, FIG. 94): greatest reduction in levels of PGE2
- activation at […] [2, 7]: 144%
- activation at […] [2, 8]: 147%
- activation at […] [3, 9]: 53.4%
- activation at […] [3, 10]: 58.9%
- activation at […] [4, 11]: 65.2%
- activation at […] [4, 12]: 77%

SMILES: COc1ccc(OC)c(N(CC(=O)Nc2ccnnc2)S(=O)(=O)c2ccccc2)c1 [SW203685]
- Decrease PGE-2 (IL-1beta-A549, %) (A549 cells [6]): 17.84%
- activation at […] [2, 7]: 122%
- activation at […] [2, 8]: -33.2%
- activation at […] [3, 9]: 100%
- activation at […] [3, 10]: 204%
- IC50 (15-PGDH protein): 5 µM
- activation at […] [4, 11]: 22.3%
- activation at […] [4, 12]: 254%

Further lines, with some results ahead:

- IC50 (15-PGDH protein): 2.67 µM
SMILES: COc1ccc(OC)c(N(CC(=O)Nc2ccncc2)S(=O)(=O)c2ccccc2)c1 [SW202938]
- Decrease PGE-2 (IL-1beta-A549, %) (A549 cells [6]): −47.55%
- activation at […] [2, 7]: 309%
- activation at […] [2, 8]: 301%
- activation at […] [3, 9]: 155%
- activation at […] [3, 10]: 230%
- activation at […] [4, 11]: 217%
- activation at […] [4, 12]: 241%

- IC50 (15-PGDH protein): ~10 µM
SMILES: COc1ccc(OC)c(N(CC(=O)Nc2ccc(C)nc2)S(=O)(=O)c2ccccc2)c1 [SW202988]
- Decrease PGE-2 (IL-1beta-A549, %) (A549 cells [6]): −16.79%
- activation at […] [2, 7]: 125%
- activation at […] [2, 8]: 258%
- activation at […] [3, 9]: 7.36%
- activation at […] [3, 10]: 54.4%
- activation at […] [4, 11]: 40.5%
- activation at […] [4, 12]: 125%

- inhibition at […] (15-PGDH protein; read-out: Enzyme inhibition % (7.5 μM)): 3.12%
SMILES: COc1ccc(OC)c(N(CC(=O)Nc2nccs2)S(=O)(=O)c2ccccc2)c1 [SW203691]
- Decrease Cell viability in A549 cell (%) (A549 cells [5]): 0.00%
- Decrease PGE-2 (IL-1beta-A549, %) (A549 cells [6]): 36.76%
- activation at […] [2, 7]: 47.1%
- activation at […] [2, 8]: 90%
- activation at […] [3, 9]: 7.78%
- activation at […] [3, 10]: 19.8%
- activation at […] [4, 11]: 5.47%
- activation at […] [4, 12]: 22%

- IC50 (15-PGDH protein): ~7 µM
SMILES: COc1ccc(OC)c(N(CC(=O)Nc2cncnc2)S(=O)(=O)c2ccccc2)c1 [SW203683]
- Decrease PGE-2 (IL-1beta-A549, %) (A549 cells [6]): −3.41%
- activation at […] [2, 7]: 104%
- activation at […] [2, 8]: -41%
- activation at […] [3, 9]: 137%
- activation at […] [3, 10]: 191%
- activation at […] [4, 11]: 3.76%
- activation at […] [4, 12]: 210%

- IC50 (15-PGDH protein): 0.427 µM
SMILES: COc1ccc(S(=O)(=O)N(CC(=O)Nc2ccncc2)c2cc(OC)ccc2OC)cc1 [SW202989]
- Decrease Cell viability in A549 cell (%) (A549 cells [5]): 30.59%
- Decrease PGE-2 (IL-1beta-A549, %) (A549 cells [6]): 69.40%
- activation at […] [2, 7]: 208%
- activation at […] [2, 8]: 214%
- activation at […] [3, 9]: 188%
- activation at […] [3, 10]: 184%
- activation at […] [4, 11]: 159%
- activation at […] [4, 12]: 171%

- inhibition at […] (15-PGDH protein; [16]): 34%
SMILES: COc1ccc(OC)c(N(CC(=O)Nc2ccc(C)cc2)S(=O)(=O)c2ccccc2)c1 [311333-86-5]
- activation at […] [2, 13]: 102%
- activation at […] [2, 14]: 131%
- activation at […] [3, 15]: 53%
- activation at […] [4, 17]: 30%
- activation at […] [4, 18]: 53.4%

- inhibition at […] (15-PGDH protein; Table 18, read-out: Enzyme inhibition % (2.5 μM)): 27%
- inhibition at […] (15-PGDH protein; [16]): 46.5%
SMILES: COc1ccc(NC(=O)CN(c2cc(OC)ccc2OC)S(=O)(=O)c2ccccc2)cc1 [333447-10-2]
- activation at […] [2, 13]: 76.9%
- activation at […] [2, 14]: 159%
- percent induction of reporter activity over basal level at […] ([3]; read-out: V9M-SC3 Reporter activity % ([…]), 7.5 μM, Table 18): 10%
- activation at […] [3, 15]: -0.5%
- activation at […] [4, 17]: 7.54%
- activation at […] [4, 18]: 14.4%

From US9790233B2, “Compositions and methods of modulating 15-PGDH activity” (CASE WESTERN RESERVE UNIVERSITY, priority 2012, dated 2017)
